Measured values from the SangsterLogP compilation.

| SMILES | logP |
| --- | --- |
| CO[C@@H]1O[C@@H]2O[C@@]3(C)CC[C@H]4[C@H](C)CC[C@@H]([C@H]1C)[C@@]24OO3 (relative stereo) | 2.86 |
| CC1CCC2C(C)C(OC(=O)Oc3ccccc3)OC3OC4(C)CCC1C32OO4 (centres undefined) | 3.38 |
| CC(C)CCOC1OC2OC3(C)CCC4C(C)CCC(C1C)C24OO3 (centres undefined) | 4.07 |
| CC(=O)OC1OC2OC3(C)CCC4C(C)CCC(C1C)C24OO3 (centres undefined) | 2.08 |
| CCCC(=O)OC1OC2OC3(C)CCC4C(C)CCC(C1C)C24OO3 (centres undefined) | 2.99 |
| CCOC(=O)OC1OC2OC3(C)CCC4C(C)CCC(C1C)C24OO3 (centres undefined) | 2.37 |
| CC1CCC2C(C)C(OC(=O)C=Cc3ccccc3)OC3OC4(C)CCC1C32OO4 (centres undefined) | 3.83 |
| CCCOC(=O)OC1OC2OC3(C)CCC4C(C)CCC(C1C)C24OO3 (centres undefined) | 3.11 |
| CC1CCC2C(C)C(OCc3ccccc3)OC3OC4(C)CCC1C32OO4 (centres undefined) | 4.2 |
| CCC(=O)OC1OC2OC3(C)CCC4C(C)CCC(C1C)C24OO3 (centres undefined) | 2.33 |
| CCCOC1OC2OC3(C)CCC4C(C)CCC(C1C)C24OO3 (centres undefined) | 3.65 |
| COCCOCCOC1OC2OC3(C)CCC4C(C)CCC(C1C)C24OO3 (centres undefined) | 3.51 |
| CCO[C@H]1O[C@@H]2O[C@@]3(C)CC[C@H]4[C@H](C)CC[C@@H]([C@H]1C)[C@@]24OO3 | 3.29 |
| CC(C)OC1OC2OC3(C)CCC4C(C)CCC(C1C)C24OO3 (centres undefined) | 3.49 |
